Assay results taken from PubChem BioAssay AID2060508 (Molecular Pharmacology Branch, DTP, NCI, 2025).
One block for each compound: values may come before it.

System: 454973-116-R2-J3-PDC spheroids, viability, % test/control
Experiment: Anticancer human tumor 454973-116-R2-J3-PDC patient-derived pancreatic carcinoma cell line growth inhibition [GQUAD]
Conditions: spheroids with HUVEC and MSC; for IC50: curve of first compound; for viability, T/C: stronger effect = lower value
Description: DNA G-quadruplex Stabilizer Agents in Combinations in Complex Spheroids
A high-throughput screen of multi-cell type tumor spheroids was designed to identify active combinations of DNA G-quadruplex stabilizer agents and targeted small molecules. Complex spheroids include a stromal component modeled by human endothelial cells (HUVEC) and fibroblasts modeled by human mesenchymal stem cells (MSCs). The concentration ranges selected for each drug and investigational agent were based upon clinically achievable concentrations if the clinical Cmax of the agent was known.
Compounds. The drugs and investigational agents: pidnarulex (CX-5461; NSC782164), APTO-253 (NSC789042), BRACO-19 (NSC847499), peposertib (NSC802822), ceralasertib (NSC780249), elimusertib (NSC800525), camonsertib (NSC841442), AZD-1390 (NSC803789), olaparib (NSC753686), talazoparib (NSC767125), ART-558 (NSC835418), sotorasib (NSC818433), MRTX-1133 (NSC836407), SN-38 (NSC673596), topotecan (NSC609699), etoposide (NSC141540), doxorubicin (NSC123127), gemcitabine (NSC613327), 5-fluorouracil (NSC19893), paclitaxel (NSC125973), vemurafenib (NSC761431), panobinostat (NSC761190), R-306465 (JNJ-16241199; NSC773264), adavosertib (NSC754352), TP-3654 (NSC805149), carboplatin (NSC241240), KSQ-4279 (NSC840948), and staurosporine (NSC755774) were obtained from the National Cancer Institute (NCI) Developmental Therapeutics Program Chemical Repository (34). The FDA-approved anticancer drug set is available from the NCI Developmental Therapeutics Program. […] The stock solutions were prepared in dimethyl sulfoxide (DMSO, Sigma-Aldrich, St. Louis, MO, cat. D2650) at 800-fold the tested concentration and stored at -70 degrees C prior to their use. All drugs and investigational agents were tested over a range starting from a high concentration at or near the clinical Cmax and decreasing in half-log increments. If the clinical Cmax for an agent had not been determined, the highest concentration tested was 10 microM.
2.3 Cell Culture. All cells were maintained in an incubator at 37 degrees C and 5% CO2 with 95% humidity. The PDC lines were cultured according to standard operating procedures established by the NCI PDMR. All PDCs were thawed and cultured in Matrigel-coated flasks prepared with a working solution of 1X Ham's F-12 nutrient mix, without supplementation (Invitrogen, cat. 11765054), 100 U/mL penicillin-streptomycin (Invitrogen, cat. 15140122), and 2.5% Matrigel (Corning Inc., cat. 354248) for the first three passages. The 857933-349-R-J2-PDC line was cultured in 6C/Colon 1B media, which includes advanced DMEM/F-12 (Thermo Fisher Scientific, cat. 12634028), 10 mM HEPES (Thermo Fisher Scientific, cat. 15630080), 1X GlutaMAX supplement (Thermo Fisher Scientific, cat. 35050061), 0.1 mg/mL primocin (InvivoGen, cat. ant-pm-2), 10% defined fetal bovine serum, heat inactivated (HyClone Laboratories Inc., cat. SH30070.03HI), 50% L-WRN conditioned media (ATCC, cat. CRL-3276), 1.25 mM N-Acetyl-L-cysteine (Sigma-Aldrich, cat. A9165), 10 mM nicotinamide (Sigma-Aldrich, cat. N0636), 1X B-27 supplement (Thermo Fisher Scientific, cat. 17504044), 1X N-2 supplement (Thermo Fisher Scientific, cat. 17502048), 10 microM Y-27632 dihydrochloride (Tocris Bioscience, cat. 1254), and 50 ng/mL human EGF recombinant protein (Thermo Fisher Scientific, cat. PHG0311). The 485176-168-R4-J1-PDC line was cultured in Panc media, which includes all 6C/Colon 1B media components plus 100 ng/mL human FGF-10 (Thermo Fisher Scientific, cat. 100-26), 500 nM SB-431542 (Selleckchem, cat. S1067), and gastrin (Tocris, cat. 3006).
[…]

[1] = second compound 0.0316 µM, first compound 0.0316 µM
[2] = second compound 0.0316 µM, first compound 0.1 µM
[3] = second compound 0.0316 µM, first compound 0.316 µM
[4] = second compound 0.0316 µM, first compound 1 µM
[5] = second compound 0.0316 µM, first compound 3.16 µM
[6] = second compound 0.0316 µM, first compound 10 µM
[7] = second compound 0.1 µM, first compound 0.0316 µM
[8] = second compound 0.1 µM, first compound 0.1 µM
[9] = second compound 0.1 µM, first compound 0.316 µM
[10] = second compound 0.1 µM, first compound 1 µM
[11] = second compound 0.1 µM, first compound 3.16 µM
[12] = second compound 0.1 µM, first compound 10 µM
[13] = second compound 0.316 µM, first compound 0.0316 µM
[14] = second compound 0.316 µM, first compound 0.1 µM
[15] = second compound 0.316 µM, first compound 0.316 µM
[16] = second compound 0.316 µM, first compound 1 µM
[17] = second compound 0.316 µM, first compound 3.16 µM
[18] = second compound 0.316 µM, first compound 10 µM
[19] = second compound 1 µM, first compound 0.0316 µM
[20] = second compound 1 µM, first compound 0.1 µM
[21] = second compound 1 µM, first compound 0.316 µM
[22] = second compound 1 µM, first compound 1 µM
[23] = second compound 1 µM, first compound 3.16 µM
[24] = second compound 1 µM, first compound 10 µM
[25] = second compound 3.16 µM, first compound 0.0316 µM
[26] = second compound 3.16 µM, first compound 0.1 µM
[27] = second compound 3.16 µM, first compound 0.316 µM
[28] = second compound 3.16 µM, first compound 1 µM
[29] = second compound 3.16 µM, first compound 3.16 µM
[30] = second compound 3.16 µM, first compound 10 µM
[31] = second compound 10 µM, first compound 0.0316 µM
[32] = second compound 10 µM, first compound 0.1 µM
[33] = second compound 10 µM, first compound 0.316 µM
[34] = second compound 10 µM, first compound 1 µM
[35] = second compound 10 µM, first compound 3.16 µM
[36] = second compound 10 µM, first compound 10 µM
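Also: spheroids exposed to compounds for seven days.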

SMILES: COc1cccc2c1C(=O)c1c(O)c3c(c(O)c1C2=O)CC(O)(C(=O)CO)CC3OC1CC(N)C(O)C(C)O1 (stereo not drawn) + CN(C)c1ccc(Nc2c3ccc(NC(=O)CCN4CCCC4)cc3nc3cc(NC(=O)CCN4CCCC4)ccc23)cc1
IC50 (second compound 0.0316 µM): 236 nM
IC50 (second compound 0.1 µM): 242 nM
IC50 (second compound 0.316 µM): 255 nM
IC50 (second compound 1 µM): 253 nM
IC50 (second compound 3.16 µM): 405 nM
IC50 (second compound 10 µM): 410 nM
viability, T/C [1]: 104%
viability, T/C [2]: 72.1%
viability, T/C [3]: 33%
viability, T/C [4]: 33.2%
viability, T/C [5]: 20.6%
viability, T/C [6]: 1.74%
viability, T/C [7]: 98.9%
viability, T/C [8]: 71.8%
viability, T/C [9]: 36.3%
viability, T/C [10]: 31.1%
viability, T/C [11]: 20.8%
viability, T/C [12]: 2.34%
viability, T/C [13]: 100%
viability, T/C [14]: 69.8%
viability, T/C [15]: 33.4%
viability, T/C [16]: 40.5%
viability, T/C [17]: 22.4%
viability, T/C [18]: 2.19%
viability, T/C [19]: 97.5%
viability, T/C [20]: 63%
viability, T/C [21]: 36%
viability, T/C [22]: 42.2%
viability, T/C [23]: 29.4%
viability, T/C [24]: 3.18%
viability, T/C [25]: 88.3%
viability, T/C [26]: 72.6%
viability, T/C [27]: 40.2%
viability, T/C [28]: 44.2%
viability, T/C [29]: 27.9%
viability, T/C [30]: 2.27%
viability, T/C [31]: 79.1%
viability, T/C [32]: 61.1%
viability, T/C [33]: 44.1%
viability, T/C [34]: 47.2%
viability, T/C [35]: 31.1%
viability, T/C [36]: 3.01%

SMILES: CC(C)n1c(=O)n(C)c2cnc3cc(F)c(-c4ccc(OCCCN5CCCCC5)nc4)cc3c21 + Cc1[nH]c2ccc(F)cc2c1-c1nc2c3cccnc3c3ncccc3c2[nH]1
IC50 (second compound 0.0316 µM): > 10000 nM
IC50 (second compound 0.1 µM): > 10000 nM
IC50 (second compound 0.316 µM): > 10000 nM
IC50 (second compound 1 µM): > 10000 nM
IC50 (second compound 3.16 µM): > 10000 nM
IC50 (second compound 10 µM): > 10000 nM
viability, T/C [1]: 112%
viability, T/C [2]: 101%
viability, T/C [3]: 105%
viability, T/C [4]: 101%
viability, T/C [5]: 95.8%
viability, T/C [6]: 67.5%
viability, T/C [7]: 95.8%
viability, T/C [8]: 107%
viability, T/C [9]: 109%
viability, T/C [10]: 102%
viability, T/C [11]: 92.5%
viability, T/C [12]: 63.7%
viability, T/C [13]: 110%
viability, T/C [14]: 99%
viability, T/C [15]: 111%
viability, T/C [16]: 117%
viability, T/C [17]: 83.9%
viability, T/C [18]: 65%
viability, T/C [19]: 94.8%
viability, T/C [20]: 101%
viability, T/C [21]: 112%
viability, T/C [22]: 93.3%
viability, T/C [23]: 85.2%
viability, T/C [24]: 61.5%
viability, T/C [25]: 89.1%
viability, T/C [26]: 101%
viability, T/C [27]: 96.8%
viability, T/C [28]: 97.5%
viability, T/C [29]: 96%
viability, T/C [30]: 66%
viability, T/C [31]: 101%
viability, T/C [32]: 91.9%
viability, T/C [33]: 88.3%
viability, T/C [34]: 93.7%
viability, T/C [35]: 79.9%
viability, T/C [36]: 59.7%

IC50 (second compound 0.0316 µM): 166 nM
IC50 (second compound 0.1 µM): 184 nM
IC50 (second compound 0.316 µM): 418 nM
IC50 (second compound 1 µM): 746 nM
IC50 (second compound 3.16 µM): 763 nM
IC50 (second compound 10 µM): < 31.6 nM
SMILES: COc1cccc2c1C(=O)c1c(O)c3c(c(O)c1C2=O)CC(O)(C(=O)CO)CC3OC1CC(N)C(O)C(C)O1 (stereo not drawn) + Cc1cnc(CNC(=O)c2c(=O)c3ccc(N4CCCN(C)CC4)nc3n3c2sc2ccccc23)cn1
viability, T/C [1]: 92.9%
viability, T/C [2]: 52.9%
viability, T/C [3]: 37.9%
viability, T/C [4]: 28.8%
viability, T/C [5]: 12.9%
viability, T/C [6]: 0.39%
viability, T/C [7]: 74.5%
viability, T/C [8]: 45.4%
viability, T/C [9]: 43.4%
viability, T/C [10]: 41%
viability, T/C [11]: 13.4%
viability, T/C [12]: 0.51%
viability, T/C [13]: 66.4%
viability, T/C [14]: 52.3%
viability, T/C [15]: 49.3%
viability, T/C [16]: 44%
viability, T/C [17]: 12%
viability, T/C [18]: 0.51%
viability, T/C [19]: 62.4%
viability, T/C [20]: 54.9%
viability, T/C [21]: 62.8%
viability, T/C [22]: 46.2%
viability, T/C [23]: 12.3%
viability, T/C [24]: 0.26%
viability, T/C [25]: 68%
viability, T/C [26]: 69.2%
viability, T/C [27]: 63.3%
viability, T/C [28]: 46%
viability, T/C [29]: 11%
viability, T/C [30]: 0.67%
viability, T/C [31]: 15.2%
viability, T/C [32]: 20%
viability, T/C [33]: 43.8%
viability, T/C [34]: 27.7%
viability, T/C [35]: 0.35%
viability, T/C [36]: 0.21%

SMILES: CC1COCCN1c1cc(C2(O)CC3CCC(C2)O3)c2cnn(-c3ccn[nH]3)c2n1 (stereo not drawn) + Cc1[nH]c2ccc(F)cc2c1-c1nc2c3cccnc3c3ncccc3c2[nH]1
IC50 (second compound 0.0316 µM): 155 nM
IC50 (second compound 0.1 µM): 141 nM
IC50 (second compound 0.316 µM): 163 nM
IC50 (second compound 1 µM): 140 nM
IC50 (second compound 3.16 µM): 143 nM
IC50 (second compound 10 µM): 115 nM
viability, T/C [1]: 95.9%
viability, T/C [2]: 62.1%
viability, T/C [3]: 29.9%
viability, T/C [4]: 21.7%
viability, T/C [5]: 24.1%
viability, T/C [6]: 12.3%
viability, T/C [7]: 87%
viability, T/C [8]: 58.9%
viability, T/C [9]: 28.9%
viability, T/C [10]: 21.3%
viability, T/C [11]: 21.8%
viability, T/C [12]: 10.4%
viability, T/C [13]: 91.6%
viability, T/C [14]: 66.4%
viability, T/C [15]: 27.7%
viability, T/C [16]: 20%
viability, T/C [17]: 21.6%
viability, T/C [18]: 13.5%
viability, T/C [19]: 93.5%
viability, T/C [20]: 58.1%
viability, T/C [21]: 30.6%
viability, T/C [22]: 19.9%
viability, T/C [23]: 21.8%
viability, T/C [24]: 13.2%
viability, T/C [25]: 88.5%
viability, T/C [26]: 58.3%
viability, T/C [27]: 31.7%
viability, T/C [28]: 21.8%
viability, T/C [29]: 21.6%
viability, T/C [30]: 12.6%
viability, T/C [31]: 79.5%
viability, T/C [32]: 53.6%
viability, T/C [33]: 26.2%
viability, T/C [34]: 22.4%
viability, T/C [35]: 20.3%
viability, T/C [36]: 12.6%
